# Results published in ChEMBL document CHEMBL1201862, “PubChem BioAssay data set” (2004).
#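 Dose response: 5 concentrations. Exposure: 48 h. Format: 96-well plates. Endpoint: linear interpolation; highest concentration if not reached. GI50: concentration for 50% inhibition of growth.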 Calls of active or inactive are those of the source. Rule as the data show it: active = GI50 up to about 1.1 µM and inactive = higher.
# Tests used:
# Assay in all cases: NCI tumour cell line growth inhibition, 48 h
# [1] = system: SW-620
# [2] = system: A549
# [3] = system: SF-295
# [4] = system: UO-31
# [5] = system: OVCAR-8
# [6] = system: SK-MEL-28
# [7] = system: SN12C
# [8] = system: MCF7
# [9] = system: MDA-N
# [10] = system: 786-0
# [11] = system: TK-10
# [12] = system: MOLT-4
# [13] = system: SNB-19
# [14] = system: HOP-92
# [15] = system: HCT-116
# [16] = system: SK-OV-3
# [17] = system: SK-MEL-5
# [18] = system: EKVX
# [19] = system: CAKI-1
# [20] = system: HL-60
# [21] = system: SNB-75
# [22] = system: UACC-257
# [23] = system: OVCAR-4
# [24] = system: U-251
# [25] = system: MDA-MB-231
# [26] = system: MDA-MB-435
# [27] = system: HCT-15
# [28] = system: M14
# [29] = system: T47D
# [30] = system: COLO 205
# [31] = system: HT-29
# [32] = system: NCI/ADR-RES
# [33] = system: K562
# [34] = system: Hs-578T
# [35] = system: LOX IMVI
# [36] = system: NCI-H460
# [37] = system: RXF 393
# [38] = system: IGROV-1
# [39] = system: A498
# [40] = system: ACHN
# [41] = system: Malme-3M
# [42] = system: BT-549
# [43] = system: NCI-H226
# [44] = system: KM12
# [45] = system: SF-539
# [46] = system: SF-268
# [47] = system: UACC-62
# [48] = system: NCI-H23
# [49] = system: CCRF-CEM
# [50] = system: HOP-62
# [51] = system: PC-3
# [52] = system: DU-145
# [53] = system: OVCAR-3
# [54] = system: OVCAR-5
# [55] = system: RPMI-8226
# [56] = system: HCC 2998
# [57] = system: SK-MEL-2
smiles,measurement,setting,value
CC(C)(C)c1ccc2c(c1)C(=O)c1ccccc1C2=O,GI50,[1],> 100 µM (inactive)
same,GI50,[2],38.6 µM (inactive)
same,GI50,[3],56.4 µM (inactive)
same,GI50,[4],> 100 µM (inactive)
same,GI50,[5],44.5 µM (inactive)
same,GI50,[6],98.2 µM (inactive)
same,GI50,[7],85.3 µM (inactive)
same,GI50,[8],20.6 µM (inactive)
same,GI50,[9],37.5 µM (inactive)
same,GI50,[10],> 100 µM (inactive)
same,GI50,[11],86.3 µM (inactive)
same,GI50,[12],24.6 µM (inactive)
same,GI50,[13],> 100 µM (inactive)
same,GI50,[14],15.5 µM (inactive)
same,GI50,[15],76 µM (inactive)
same,GI50,[16],> 100 µM (inactive)
same,GI50,[17],18.1 µM (inactive)
same,GI50,[18],19 µM (inactive)
same,GI50,[19],> 100 µM (inactive)
same,GI50,[20],64.6 µM (inactive)
same,GI50,[21],16.2 µM (inactive)
same,GI50,[22],40.2 µM (inactive)
same,GI50,[23],33.6 µM (inactive)
same,GI50,[24],50 µM (inactive)
same,GI50,[25],> 100 µM (inactive)
same,GI50,[26],35.9 µM (inactive)
same,GI50,[27],39.7 µM
same,GI50,[28],> 100 µM (inactive)
same,GI50,[29],> 100 µM (inactive)
same,GI50,[30],25 µM (inactive)
same,GI50,[31],27.2 µM (inactive)
same,GI50,[32],32.7 µM (inactive)
same,GI50,[33],58.1 µM (inactive)
same,GI50,[34],90.2 µM (inactive)
same,GI50,[35],41.4 µM (inactive)
same,GI50,[36],31.3 µM (inactive)
same,GI50,[37],26.1 µM (inactive)
same,GI50,[38],33 µM (inactive)
same,GI50,[39],41.3 µM (inactive)
same,GI50,[40],37.9 µM (inactive)
same,GI50,[41],> 100 µM (inactive)
same,GI50,[42],24.8 µM (inactive)
same,GI50,[43],35.5 µM (inactive)
same,GI50,[44],36 µM (inactive)
same,GI50,[45],> 100 µM (inactive)
same,GI50,[46],39.4 µM (inactive)
same,GI50,[47],42 µM (inactive)
same,GI50,[48],61.9 µM (inactive)
same,GI50,[49],57.1 µM (inactive)
same,GI50,[50],> 100 µM (inactive)
same,GI50,[51],37.7 µM (inactive)
same,GI50,[52],> 100 µM (inactive)
same,GI50,[53],> 100 µM (inactive)
same,GI50,[54],82.6 µM (inactive)
same,GI50,[55],31.3 µM (inactive)
CC(=O)C1=C(C)N2C(=NC3=C(CCc4ccccc43)C2c2ccc(F)cc2)S1 (configuration not stated),GI50,[1],> 100 µM (inactive)
same,GI50,[2],> 100 µM (inactive)
same,GI50,[3],> 100 µM (inactive)
same,GI50,[4],52.7 µM (inactive)
same,GI50,[5],62.5 µM (inactive)
same,GI50,[6],> 100 µM (inactive)
same,GI50,[7],51.3 µM (inactive)
same,GI50,[8],60.5 µM (inactive)
same,GI50,[9],55.6 µM (inactive)
same,GI50,[10],> 100 µM (inactive)
same,GI50,[12],2.59 µM (inactive)
same,GI50,[13],> 100 µM (inactive)
same,GI50,[14],63.1 µM (inactive)
same,GI50,[15],> 100 µM (inactive)
same,GI50,[16],> 100 µM (inactive)
same,GI50,[17],30.1 µM (inactive)
same,GI50,[18],24 µM (inactive)
same,GI50,[20],28.4 µM (inactive)
same,GI50,[21],25.6 µM (inactive)
same,GI50,[22],79.4 µM (inactive)
same,GI50,[23],56.1 µM (inactive)
same,GI50,[24],84.7 µM (inactive)
same,GI50,[25],22.3 µM (inactive)
same,GI50,[26],> 100 µM (inactive)
same,GI50,[28],> 100 µM (inactive)
same,GI50,[29],63.5 µM (inactive)
same,GI50,[30],58.1 µM (inactive)
same,GI50,[31],84.1 µM (inactive)
same,GI50,[32],37.3 µM (inactive)
same,GI50,[33],31.3 µM (inactive)
same,GI50,[34],42.8 µM (inactive)
same,GI50,[35],44.2 µM (inactive)
same,GI50,[37],52.6 µM (inactive)
same,GI50,[38],27.7 µM (inactive)
same,GI50,[39],45.7 µM (inactive)
same,GI50,[40],77.6 µM (inactive)
same,GI50,[42],93.5 µM (inactive)
same,GI50,[43],> 100 µM (inactive)
same,GI50,[44],> 100 µM (inactive)
same,GI50,[45],80.5 µM (inactive)
same,GI50,[46],61 µM (inactive)
same,GI50,[47],78.2 µM (inactive)
same,GI50,[56],83.9 µM (inactive)
same,GI50,[48],> 100 µM (inactive)
same,GI50,[49],40.3 µM (inactive)
same,GI50,[50],84.1 µM (inactive)
same,GI50,[51],89.7 µM (inactive)
same,GI50,[52],> 100 µM (inactive)
same,GI50,[53],67.9 µM (inactive)
same,GI50,[57],> 100 µM (inactive)
same,GI50,[54],> 100 µM (inactive)
same,GI50,[55],17.5 µM (inactive)
